Data taken from article PMC7409196, “Investigating the Effect of Esterification on Retinal Pigment Epithelial Uptake Using Rhodamine B Derivatives” (Translational Vision Science & Technology, 2020).

Assays:
ARPE-19-nic cells [1] = experiment: De-esterification in cells (HPLC of cell extracts); type: in vitro ADME, human; settings: confluent cells treated with 100 nM for 30 minutes and 2 hours
Protocol: For cell work, confluent ARPE-19-nic cells were treated with 100 nM dye solutions for 30 minutes and 2 hours at 37°C, 5% CO2 in a 12-well plate. After washing the cells with PBS three times, cells were extracted using cell scrappers with the aid of methanol. The cell suspension in methanol was sonicated in a water bath for 5 minutes and was centrifuged at 16,000 g for 15 minutes. The supernatant was transferred to an HPLC vial and methanol was evaporated under a stream of nitrogen. The sample was resuspended in 40 µL of methanol before injecting into the HPLC system. Twenty microliters of the samples were injected with an autosampler. Separation was conducted by 1.1 mL/min isocratic elution with a methanol (80%) and 10 mM sodium phosphate buffer (pH 5.8, 20%) mobile phase on a 250 × 4.6-mm (5 µm) C18 column (Pinnacle II; Restek, Bellefonte, PA) maintained at 40°C. The samples were monitored at an emission wavelength of 580 nm (λex = 550 nm) using a FLD detector and analyzed with Agilent Chemstation software.

[2] = system: isolated mitochondria from ARPE-19-nic cells; experiment: Quantification of dye amounts in isolated mitochondria; type: cell-based, human; settings: 100 nM, 30 minutes; t-test P < 0.0001
ARPE-19-nic cells [3] = experiment: Co-localization with Mito-GFP (confocal and high-resolution live cell imaging); type: cell-based, human; settings: 25 nM, 30 minutes; for cell penetration and association with mitochondria, high-resolution airy scan imaging: live cells
Protocol: ARPE-19-nic cells were seeded at 1.5 × 10^5 cells per well density in 8-well Millicell EZ slides with MEM-Nic + 1% FBS. After 24 hours (60%–70% confluency), cells were transfected with CellLight Mitochondria-GFP using manufacturer's recommended protocol. For co-localization experiments carried out at subconfluent conditions, media containing CellLight Mito-GFP were removed, washed with DPBS and cells were treated with 25 nM dye solutions prepared in MEM-Nic + 1% FBS at 37°C, 5% CO2. After 30 minutes, media containing dye solution was removed and cells were washed three times with DPBS. Cells were mounted with DPBS for confocal laser scanning microscope imaging. An 63× oil lens was used to image cells in green and red channels. For experiments carried out at confluent conditions, transfection was carried out at 60% to 70% confluency and cells were grown to 100% confluency. A 20× lens was used to generate images to compare staining efficiencies.
To analyze RBBE and its association with mitochondria, high-resolution live cell imaging was conducted using a Zeiss LSM880 inverted confocal microscope equipped with a GaAsP detector. All the images were obtained by using a 63× oil objective (30°C oil) in three channels (blue, green, and red) at room temperature. ARPE-19-nic cells were grown in Lab-Tek II chambered no 1.5 German coverslip system for 24 hours before treating with CellLight Mito-GFP overnight followed by a 30-minute treatment of 25 nM RBBE in growth media. After treating the cells with RBBE, cells were washed twice with PBS and nuclei were stained employing a Hoechst stain (1/2000 diluted from a 10 mg/mL stock solution in media) for 10 minutes at room temperature. Subsequently cells were washed twice with PBS and cells were imaged in phenol red free CO2 independent Leibovitz's (1×) media.

[4] = Stability of dyes in media (HPLC); type: in vitro ADME; settings: 100 nM in MEM-Nic + 1% FBS, 37°C, HPLC at 0 and 2 hours
Protocol: Fresh 100 nM RBBE solutions were prepared in MEM-Nic + 1% FBS with 0.2% Tween20. HPLC chromatograms were recorded immediately after making solutions and after incubation at 37°C for 2 hours to determine stability of the ester linkage in media.

ARPE-19-nic cells [5] = experiment: Accumulation experiment with repeated dye additions; type: cell-based, human; settings: 25 nM added 1×, 2× or 3×, 2 hours each
Protocol: Black clear bottomed Costar 96-well plates were pretreated with 0.039 mg/mL collagen I solution prepared in sterilized deionized water (50 µL per well) for 1 hour, aspirated and washed with 100 µL of DPBS. Confluent ARPE-19-nic cells were harvested and seeded at approximately 70,000 cells per well and grown until the cells reached 100% confluency. At the time of confluence (day 0), media were removed from the cells and treated with 100 µL of freshly made dye solutions in MEM-Nic + 1% FBS in amber Eppendorf tubes in dark. After the appropriate incubation time, cells were washed thrice with DPBS, lysed with Qiagen RLT buffer with 0.2% Tween20, and fluorescence was recorded at λex/ λem = 552 nm/558 nm. […] Extracellular levels were measured by transferring 75 µL of the media sitting on top of the cells to a new black, clear bottomed 96-well plate. To the transferred media, 25 µL of Qiagen RLT lysis buffer with 0.2% Tween20 were added and fluorescence was measured as mentioned elsewhere in this article. Intracellular amounts were determined by adding 100 µL of Qiagen RLT lysis buffer with 0.2% Tween20 to the cells that were washed thrice with DPBS. Fluorescence measurements were carried as described. […] After the incubation period, cells were washed three times with DPBS and fluorescence was measured from a plate reader. […]

ARPE-19-nic cells [6] = experiment: Cellular uptake: intracellular and extracellular fluorescence quantification; type: cell-based, human
Protocol: Black clear bottomed Costar 96-well plates were pretreated with 0.039 mg/mL collagen I solution prepared in sterilized deionized water (50 µL per well) for 1 hour, aspirated and washed with 100 µL of DPBS. Confluent ARPE-19-nic cells were harvested and seeded at approximately 70,000 cells per well and grown until the cells reached 100% confluency. At the time of confluence (day 0), media were removed from the cells and treated with 100 µL of freshly made dye solutions in MEM-Nic + 1% FBS in amber Eppendorf tubes in dark. […] To determine intracellular and extracellular dye levels, cells were treated with 25 nM dye solutions for 2 hours. Extracellular levels were measured by transferring 75 µL of the media sitting on top of the cells to a new black, clear bottomed 96-well plate. To the transferred media, 25 µL of Qiagen RLT lysis buffer with 0.2% Tween20 were added and fluorescence was measured as mentioned elsewhere in this article. Intracellular amounts were determined by adding 100 µL of Qiagen RLT lysis buffer with 0.2% Tween20 to the cells that were washed thrice with DPBS. Fluorescence measurements were carried as described. For accumulation experiments, freshly prepared 25 nM dye solutions were added to cells multiple times (1×, 2×, or 3×) and incubated for 2 hours after each addition, removing media before each addition. After the incubation period, cells were washed three times with DPBS and fluorescence was measured from a plate reader. For retention experiments, cells were treated with 25 nM dye solutions for 2 hours at 37°C, 5% CO2, and fresh media was added every 24 hours after the removal of the dye solution.

Compound | conversion into the parent form (de-esterification) inside cells (ARPE-19-nic cells [1]) | fluorescence from isolated mitochondria compared with RB-treated cells [2] | cell penetration and association with mitochondria, high-resolution airy scan imaging (ARPE-19-nic cells [3]) | stability of the ester in media [4] | intracellular level after multiple doses (accumulation) (ARPE-19-nic cells [5]) | cell permeability (ARPE-19-nic cells [6]; 25 nM) | intracellular versus extracellular location of dye (ARPE-19-nic cells [6]; 25 nM, 2 hours, fluorescence) | cell penetration after 24 hours incubation (ARPE-19-nic cells [6]; 24 hours incubation) | co-localization with Mito-GFP labelled mitochondria (ARPE-19-nic cells [3]; confocal laser scanning microscopy)
CCCCOC(=O)c1ccccc1-c1c2ccc(=[N+](CC)CC)cc-2oc2cc(N(CC)CC)ccc12 [RBBE, Rhodamine B Butyl Ester] | did not convert into its parent form within 2 hours | increased fluorescence activity | able to effectively penetrate into the cells and associated with mitochondria | stable in media up to 2 hours | – | – | – | – | –
rhodamine B [RB] | – | – | did not observe any RB | – | showed no accumulation | cell impermeable | primarily located in the extracellular space | not able to penetrate into the cells | not detected within the cells
